From publication PMC11110756 (RSC Advances, 2024)
Where two headings read alike, the source gives them in different places.

Experiments:
A549 [1] = experiment: MTT assay, antiproliferative activity on lung cancer A549; format: cell-based, human; conditions: for cytotoxicity level in words, A549: text grading
Caco-2 = experiment: MTT assay, antiproliferative activity on colorectal cancer Caco-2; format: cell-based, human; conditions: for cytotoxicity level in words, Caco-2: text grading; for SI (CaCo-2): selectivity index WI38 vs CaCo-2
WI38 = experiment: MTT assay, cytotoxicity on normal lung fibroblast WI38; format: cell-based, human; conditions: read-out: IC50 WI38
A549 [2] = conditions: read-out: IC50 A549; reference drug; cited from earlier work
[3] = Homo sapiens, A549, read-out: IC50 A549
[4] = Homo sapiens, Caco-2, read-out: IC50 CaCo-2

Row | IC50 (A549 [1]; [3]) [µM] | IC50 (Caco-2; [4]) [µM] | IC50 (A549 [1]; read-out: IC50 A549, MTT, lung cancer A549) [µM] | IC50 (Caco-2; read-out: IC50 CaCo-2, MTT, colorectal cancer Caco-2) [µM] | SMILES | cytotoxicity level in words, Caco-2 (Caco-2; MTT) | SI (CaCo-2) (Caco-2) | IC50 (WI38; Homo sapiens, WI-38, 72 h) [µM] | cytotoxicity level in words, A549 (A549 [1]; MTT) | IC50 (A549 [2]) [µM] | IC50 (WI38; MTT, normal lung fibroblast WI38, 72 h) [µM]
1 | 7.4 | 26.3 | – | – | CCOC(=O)Cn1cc(COc2ccccc2-c2nc(-c3ccccc3)no2)nn1 [Compound 5a, Ethyl 2-(4-((2-(3-phenyl-1,2,4-oxadiazol-5-yl)phenoxy)methyl)-1H-1,2,3-triazol-1-yl)acetate] | moderate | 0.54 | 14.3 | – | – | –
2 | 10.3 | 16.4 | – | – | O=C(Cn1cc(COc2ccccc2-c2nc(Cc3ccccc3)no2)nn1)NNC(=S)Nc1ccccc1 [Compound 11b, 2-(2-(4-((2-(3-Benzyl-1,2,4-oxadiazol-5-yl)phenoxy)methyl)-1H-1,2,3-triazol-1-yl)acetyl)-N-phenylhydrazine-1-carbothioamide] | – | 2.08 | 34 | – | – | –
3 | 210 | 98.1 | – | – | O=C(O)Cn1cc(COc2ccccc2-c2nc(-c3ccccc3)no2)nn1 [Compound 7a, 2-(4-((2-(3-Phenyl-1,2,4-oxadiazol-5-yl)phenoxy)methyl)-1H-1,2,3-triazol-1-yl)acetic acid] | weak to inactive | 0.23 | 22.4 | weak to inactive | – | –
4 | 6.52 | 3.37 | – | – | O=C(Cn1cc(COc2ccccc2-c2nc(-c3ccccc3)no2)nn1)NN=Cc1ccccc1O [Compound 9a, N′-(2-Hydroxybenzylidene)-2-(4-((2-(3-phenyl-1,2,4-oxadiazol-5-yl)phenoxy)methyl)-1H-1,2,3-triazol-1-yl)acetohydrazide] | – | 1.81 | 6.1 | – | – | –
5 | 12.4 | 32.2 | – | – | O=C(Cn1cc(COc2ccccc2-c2nc(-c3ccccc3)no2)nn1)NNC(=S)Nc1ccccc1 [Compound 11a, N-Phenyl-2-(2-(4-((2-(3-phenyl-1,2,4-oxadiazol-5-yl)phenoxy)methyl)-1H-1,2,3-triazol-1-yl)acetyl)hydrazine-1-carbothioamide] | moderate | 0.67 | 21.6 | – | – | –
6 | 86 | 173 | – | – | O=C(O)Cn1cc(COc2ccccc2-c2nc(Cc3ccccc3)no2)nn1 [Compound 7b, 2-(4-((2-(3-Benzyl-1,2,4-oxadiazol-5-yl)phenoxy)methyl)-1H-1,2,3-triazol-1-yl)acetic acid] | weak to inactive | 0.48 | 83.8 | weak to inactive | – | –
7 | 12.7 | 14.1 | – | – | NC(=O)Cn1cc(COc2ccccc2-c2nc(-c3ccccc3)no2)nn1 [Compound 6a, 2-(4-((2-(3-Phenyl-1,2,4-oxadiazol-5-yl)phenoxy)methyl)-1H-1,2,3-triazol-1-yl)acetamide] | – | 2.11 | 29.8 | – | – | –
8 | 13.1 | 12.9 | – | – | NNC(=O)Cn1cc(COc2ccccc2-c2nc(-c3ccccc3)no2)nn1 [Compound 8a, 2-(4-((2-(3-Phenyl-1,2,4-oxadiazol-5-yl)phenoxy)methyl)-1H-1,2,3-triazol-1-yl)acetohydrazide] | – | 2.38 | 30.6 | – | – | –
9 | 2.51 | 2.89 | – | – | O=C(Cn1cc(COc2ccccc2-c2nc(Cc3ccccc3)no2)nn1)NN=Cc1ccccc1O [Compound 9b, 2-(4-((2-(3-Benzyl-1,2,4-oxadiazol-5-yl)phenoxy)methyl)-1H-1,2,3-triazol-1-yl)-N'-(2-hydroxybenzylidene)acetohydrazide] | – | 0.73 | 2.12 | – | – | –

Further lines, the compound ahead of its results:

Row | SMILES | IC50 (A549 [1]; [3]) [µM] | IC50 (Caco-2; [4]) [µM] | IC50 (A549 [1]; read-out: IC50 A549, MTT, lung cancer A549) [µM] | IC50 (Caco-2; read-out: IC50 CaCo-2, MTT, colorectal cancer Caco-2) [µM] | cytotoxicity level in words, Caco-2 (Caco-2; MTT) | SI (CaCo-2) (Caco-2) | IC50 (WI38; Homo sapiens, WI-38, 72 h) [µM] | cytotoxicity level in words, A549 (A549 [1]; MTT) | IC50 (A549 [2]) [µM] | IC50 (WI38; MTT, normal lung fibroblast WI38, 72 h) [µM]
10 | NC(=O)Cn1cc(COc2ccccc2-c2nc(Cc3ccccc3)no2)nn1 [Compound 6b, 2-(4-((2-(3-Benzyl-1,2,4-oxadiazol-5-yl)phenoxy)methyl)-1H-1,2,3-triazol-1-yl)acetamide] | 3.56 | 11.5 | – | – | – | 1.38 | 15.9 | – | – | –
11 | NNC(=O)Cn1cc(COc2ccccc2-c2nc(Cc3ccccc3)no2)nn1 [Compound 8b, 2-(4-((2-(3-Benzyl-1,2,4-oxadiazol-5-yl)phenoxy)methyl)-1H-1,2,3-triazol-1-yl)acetohydrazide] | 4.27 | 4.44 | – | – | – | 0.81 | 3.6 | – | – | –
12 | COc1cc([C@@H]2c3cc4c(cc3[C@@H](O[C@@H]3O[C@@H]5CO[C@@H](C)O[C@H]5[C@H](O)[C@H]3O)[C@H]3COC(=O)[C@H]23)OCO4)cc(OC)c1O [etoposide] | – | – | – | – | – | – | – | – | 3.08 | –
13 | COc1cccc2c1C(=O)c1c(O)c3c(c(O)c1C2=O)C[C@@](O)(C(=O)CO)C[C@@H]3O[C@H]1C[C@H](N)[C@H](O)[C@H](C)O1 [Doxorubicin, reference compound] | 1 | 1.3 | – | – | – | 3.32 | 4.32 | – | – | –
14 | CCOC(=O)Cn1cc(COc2ccccc2-c2nc(Cc3ccccc3)no2)nn1 [Compound 5b, Ethyl 2-(4-((2-(3-benzyl-1,2,4-oxadiazol-5-yl)phenoxy)methyl)-1H-1,2,3-triazol-1-yl)acetate] | 10.5 | 47.7 | – | – | moderate | 0.41 | 19.5 | – | – | –
15 | Cc1c(O)ncc(COP(=O)([O-])O)c1C=NNC(=O)Cn1cc(COc2ccccc2-c2nc(Cc3ccccc3)no2)nn1.[Na+] [Compound 10b, Sodium-(4-((2-(2-(4-((2-(3-benzyl-1,2,4-oxadiazol-5-yl)phenoxy)methyl)-1H-1,2,3-triazol-1-yl)acetyl)hydrazineylidene)methyl)-6-hydroxy-5-methylpyridin-3-yl)methyl hydrogen phosphate] | 37.3 | 44.5 | – | – | moderate | 0.74 | 32.8 | moderate | – | –
16 | Cc1c(O)ncc(COP(=O)([O-])O)c1C=NNC(=O)Cn1cc(COc2ccccc2-c2nc(-c3ccccc3)no2)nn1.[Na+] [Compound 10a, Sodium-(6-hydroxy-5-methyl-4-((2-(2-(4-((2-(3-phenyl-1,2,4-oxadiazol-5-yl)phenoxy)methyl)-1H-1,2,3-triazol-1-yl)acetyl)hydrazonol)methyl)pyridin-3-yl)methyl hydrogen phosphate] | – | – | 29.5 | 26.7 | moderate | 0.34 | – | moderate | – | 9.02
